Data on 2 molecules can be found in patent US7250410B2, “Cyclic nucleotide phosphodiesterase inhibitors, preparation and uses thereof” (Via Pharmaceuticals, Inc., priority 2001, dated 2007).

Assay [1] deals with PDE4. The experiment in a line: Inhibition of PDE4, radioenzymatic phosphodiesterase assay. The class given is biochemical, bovine. The gist of the method: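 PDE4 partially purified from bovine aortic media by 105,000 g centrifugation and anion-exchange chromatography with an NaCl gradient. Activity measured radioenzymatically: product nucleoside separated from nucleotides by anion exchange and counted by liquid scintillation.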

The target in assay [2] is T1, PDE2 (Bos taurus, UniProt P14099).
T1 construct: PDE2 was prepared from bovine endothelial cells by the same methods; endogenous in cells; host or cells: bovine vascular endothelial cells, DEAE-Sephacel fraction
T1 sequence (P14099 1-921): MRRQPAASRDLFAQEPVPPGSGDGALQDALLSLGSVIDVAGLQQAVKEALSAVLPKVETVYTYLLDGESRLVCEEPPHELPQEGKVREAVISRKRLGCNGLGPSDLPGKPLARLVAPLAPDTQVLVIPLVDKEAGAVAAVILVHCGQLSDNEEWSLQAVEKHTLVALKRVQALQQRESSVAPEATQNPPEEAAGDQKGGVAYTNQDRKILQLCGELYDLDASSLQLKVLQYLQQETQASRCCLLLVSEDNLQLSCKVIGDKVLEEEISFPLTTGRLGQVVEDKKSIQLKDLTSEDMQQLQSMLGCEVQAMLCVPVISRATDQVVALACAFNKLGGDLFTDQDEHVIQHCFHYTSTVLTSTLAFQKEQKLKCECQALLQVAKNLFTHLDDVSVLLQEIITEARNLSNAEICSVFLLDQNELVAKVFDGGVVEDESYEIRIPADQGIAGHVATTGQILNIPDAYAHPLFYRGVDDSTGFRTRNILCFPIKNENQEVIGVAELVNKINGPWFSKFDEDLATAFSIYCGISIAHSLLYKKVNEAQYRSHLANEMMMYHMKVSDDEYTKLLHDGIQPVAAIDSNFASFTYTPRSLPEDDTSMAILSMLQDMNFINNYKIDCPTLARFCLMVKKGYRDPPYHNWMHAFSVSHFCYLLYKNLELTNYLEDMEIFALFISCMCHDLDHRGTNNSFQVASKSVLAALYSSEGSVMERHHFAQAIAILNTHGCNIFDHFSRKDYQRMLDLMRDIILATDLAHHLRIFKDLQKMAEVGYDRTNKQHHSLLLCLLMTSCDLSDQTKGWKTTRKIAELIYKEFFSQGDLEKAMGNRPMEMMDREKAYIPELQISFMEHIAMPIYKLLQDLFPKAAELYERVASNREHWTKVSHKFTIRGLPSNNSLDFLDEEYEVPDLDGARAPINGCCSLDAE
The experiment in a line: Selectivity: inhibition of PDE2, radioenzymatic phosphodiesterase assay. As to conditions: Table 4 Selectivity; compound at 10 μM; read-out: PDE2 percentage inhibition at 10 μM. The class given is biochemical, bovine. Here is the method: A 3 g segment of bovine aortic media cut into pieces with scissors was homogenized with an ultra-turrax then a potter glass/glass homogenizer in 7 volumes by weight of buffer A containing a protease inhibitor cocktail (20 mM Tris-HCl, 0.25 M saccharose, 2 mM magnesium acetate, 1 mM dithiothreitol, 5 mM EGTA, 2000 U/ml aprotinin, 10 mg/l leupeptin and 10 mg/l soya trypsic inhibitor). The homogenizate was centrifuged at 105,000 g for 1 hour. The supernatant was loaded on a DEAE-Sephacel column (15×1.6 cm) pre-equilibrated with buffer B (buffer A without the saccharose, EGTA and protease inhibitors). The column was washed until there was no detectable absorption at 280 nm, then eluted with a linear gradient of NaCl (0–0.5 M) in buffer B. 3-ml fractions were collected and enzyme activity was determined under the conditions described hereinafter to localize the different enzymes PDE1, PDE3, PDE4 and PDE5, which were aliquoted and frozen at −80° C. (Lugnier et al., Biochem. Phamacol., 35 (1986) 1746–1751). PDE2 was prepared from bovine endothelial cells by the same methods (Lugnier and Schini, Biochem. Pharmacol. 1990, 39; 75–84).
Cyclic nucleotide phosphodiesterase activity was determined by a radioenzymatic method using tritium-labelled cyclic GMP or AMP (1 μM) as substrate (Lugnier et al., 1986). ^3H-labelled adenosine or guanosine monophosphate formed by hydrolysis of the radiolabelled cyclic nucleotide was then converted to ^3H-labelled adenosine or guanosine in a second reaction with […] in excess. The nucleoside formed was separated from the nucleotides by anion exchange chromatography. Nucleoside radioactivity was determined by liquid scintillation counting. Enzymatic incubations were carried out under conditions allowing no more than 15% hydrolysis of the substrate; each point was performed in duplicate.
The activity of the compounds was evaluated on other phosphodiesterase isoforms, particularly basal state or calmodulin-activated PDE1 from vascular smooth muscle, basal state or cyclic GMP-activated PDE2 from vascular endothelial cells, PDE3 and PDE5 from vascular smooth muscle.
The results obtained are presented in Table 4 hereinafter and are expressed as the percentage inhibition of enzymatic activity produced by […] of the tested compound.

The test system of assay [3] is IL1β, IL6 and IL8. The experiment in a line: IL1β, IL6 and IL8 secretion by LPS-activated mononuclear cells from venous blood. The class given is cell-based, human.

The structures appear in SMILES notation. Where “and” joins values, the source holds several entries; their conditions need not be identical. Identical values can stand only once.

With `CCOc1cc2c(cc1OCC)C(c1ccccc1)=NCC(=O)N2` [XXIIag, 7,8-diethoxy-5-phenyl-1,3-dihydro-2H-1,4-benzodiazepin-2-one], the IC50 (in general, the midpoint of a concentration-inhibition curve) in assay [1] (Table 2, formula (XXII), 1 μM cyclic AMP) stood at 0.95 µM; in assay [1] (Table 4 Selectivity) it was 0.95 µM. Also, in assay [2], the inhibition (usually the drop in the measured response relative to a control, in per cent) at 10 µM was determined as 17%. Moreover, the “inhibition of the secretion of IL1β” value in assay [3] (in words) is “capable of inhibiting the secretion”.
Consider `CCOc1cc2c(cc1OC)C(c1ccccc1)=NCC(=O)N2C` [IIda, 8-ethoxy-7-methoxy-1-methyl-5-phenyl-1,3-dihydro-2H-1,4-benzodiazepin-2-one], for which the IC50 in assay [1] (Table 3, formula (II), 1 μM cyclic AMP) was 0.55 µM and 0.43 µM; in assay [1] (Table 4 Selectivity), 0.5 µM. Further, the inhibition at 10 µM in assay [2] stood at 7%. Further, the “IL1β, IL6 and IL8 secretion levels” value in assay [3] (compound at 1 μM) was “not at all altered”.
